Drawing on patent publication US20250129028A1, “COMPOUNDS AND METHODS FOR YAP/TEAD MODULATION AND INDICATIONS THEREFOR” (Opna Bio SA, priority 2022, published 2025), this text covers IC50 for 33 compounds.

Each structure is given as a SMILES string.

The first assay concerns TEAD-dependent transcription. The assay can be described thus: TEAD-dependent transcription cell-based reporter assay (MSTO-211H+12XGTIIC luciferase). The arrangement: species or system human. The conditions noted are these: Homo sapiens; MSTO-211H+12XGTIIC cell line, luciferase signal normalized to cell viability, 24 hours compound incubation; read-out: MSTO-211H GMean IC50 (uM) Cell Assay Reporter Cell Variant: TEAD. In a few lines:
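MSTO-211H mesothelioma cells stably carrying a 12xGTIIC TEAD-response-element luciferase reporter, treated with serial compound dilutions for 24 h at 37 °C. Luminescence normalized to CellTiter-Fluor viability signal; % inhibition versus DMSO and 20 μM K-975 controls, IC50 by nonlinear regression.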
A general note: A reporter such as luciferase makes a cellular process visible.
The term IC50 denotes the concentration needed to halve the response being measured. As for `C=CC(=O)N1CCC(C(=O)N2CCc3ccc(Oc4ccc(C(F)(F)F)c(F)c4)cc3C2)CC1` [P-0121, 1-(4-(7-(3-fluoro-4-(trifluoromethyl)phen-oxy)-1,2,3,4-tetrahydro-isoquinoline-2-carbon-yl)piperidin-1-yl)prop-2-en-1-one], the IC50 was in the range of 0.001 to 10 µM.
Turning to `N#CCCS(=O)(=O)N1CCc2ccc(Oc3ccc(C(F)(F)F)cc3)cc2C1` [P-0049, 3-((7-(4-(trifluorometh-yl)phenoxy)-3,4-dihydro-isoquinolin-2(1H)-yl)sul-fonyl)propanenitrile], the IC50 lay within 0.001 to 10 µM.
As to `NC(=O)c1cc(C(=O)N2CCc3ccc(Oc4ccc(C(F)(F)F)cc4)cc3C2)n[nH]1` [P-0124, 3-(7-(4-(trifluorometh-yl)phenoxy)-1,2,3,4-tetrahydroisoquinoline-2-carbonyl)-1H-pyrazole-5-carboxamide], the half-maximal inhibitory concentration (IC50) is 0.001 to 10 µM.
On the same count and under the same terms, for `NC(=O)CCN1CCc2ccc(Oc3ccc(C(F)(F)F)cc3)cc2C1` [P-0029, 3-(7-(4-(trifluorometh-yl)phenoxy)-3,4-dihydro-isoquinolin-2(1H)-yl)-propanamide] the value was 10 to 100 µM; for `N#CC1(CC(=O)N2CCc3ccc(Oc4ccc(C(F)(F)F)cc4)cc3C2)CC1` [P-0060, 1-(2-oxo-2-(7-(4-(trifluoromethyl)phen-oxy)-3,4-dihydroiso-quinolin-2(1H)-yl)-ethyl)cyclopropane-1-carbonitrile], 0.001 to 10 µM; for `O=C(C1CCC1)N1CCc2ccc(Oc3ccc(C(F)(F)F)cc3)cc2C1` [P-0033, cyclobutyl(7-(4-(trifluoro-methyl)phenoxy)-3,4-dihydroisoquinolin-2(1H)-yl)methanone], 0.001 to 10 µM.
As to `CCC(=O)CN1CCc2ccc(Oc3ccc(C(F)(F)F)cc3)cc2C1` [P-0028, 1-(7-(4-(trifluorometh-yl)phenoxy)-3,4-dihydro-isoquinolin-2(1H)-yl)-butan-2-one], the IC50 fell in the range of 10 to 100 µM.
For the compound `O=C(CCc1cn[nH]c1)N1CCc2c(cccc2Oc2ccc(C(F)(F)F)cc2)C1` [P-0248, 3-(1H-pyrazol-4-yl)-1-(5-(4-(trifluoromethyl)-phenoxy)-3,4-dihydro-isoquinolin-2(1H)-yl)pro-pan-1-one], the 50% inhibitory concentration (IC50) was in the range of 0.001 to 10 µM.
Consider `O=C(CC1CS(=O)(=O)C1)N1CCc2ccc(Oc3ccc(C(F)(F)F)cc3)cc2C1` [P-0072, 2-(1,1-dioxidothietan-3-yl)-1-(7-(4-(trifluoro-methyl)phenoxy)-3,4-dihydroisoquinolin-2(1H)-yl)ethan-1-one], for which the IC50 fell in the range of 0.001 to 10 µM.
Same read-out and setting: for `O=C(Cc1c[nH]cn1)N1CCc2ccc(Oc3ccc(C(F)(F)F)cc3)cc2C1` [P-0164, 2-(1H-imidazol-4-yl)-1-(7-(4-(trifluoromethyl)-phenoxy)-3,4-dihydroiso-quinolin-2(1H)-yl)ethan-1-one] the value was 0.001 to 10 µM.
Same read-out and setting: for `C[S+]([O-])CCC(=O)N1CCc2ccc(Oc3ccc(C(F)(F)F)cc3)cc2C1` (stereo not drawn) [P-0056, 3-(methylsulfinyl)-1-(7-(4-(trifluoromethyl)phen-oxy)-3,4-dihydroisoquin-olin-2(1H)-yl)propan-1-one] the value was 0.001 to 10 µM.
On the same count and under the same terms, next, `CN(C)CCC(=O)N1CCc2ccc(Oc3ccc(C(F)(F)F)c(F)c3)cc2C1` [P-0094, 3-(dimethylamino)-1-(7-(3-fluoro-4-(trifluoro-methyl)phenoxy)-3,4-dihydroisoquinolin-2(1H)-yl)propan-1-one]: 0.001 to 10 µM.
On to `C=CC(=O)Nc1ncc(CC(=O)N2CCc3ccc(Oc4ccc(C(F)(F)F)c(F)c4)cc3C2)s1` [P-0163, N-(5-(2-(7-(3-fluoro-4-(trifluoromethyl)phen-oxy)-3,4-dihydroisoquin-olin-2(1H)-yl)-2-oxoeth-yl)thiazol-2-yl)acrylamide], for which the IC50 lay in the range of 0.001 to 10 µM.
Turning to `O=C(C1CS(=O)(=O)C1)N1CCc2ccc(Oc3ccc(C(F)(F)F)cc3)cc2C1` [P-0077, (1,1-dioxidothietan-3-yl)(7-(4-(trifluorometh-yl)phenoxy)-3,4-dihydro-isoquinolin-2(1H)-yl)-methanone], the IC50 was 0.001 to 10 µM.
For the compound `O=C(C1CCCNC1)N1CCc2ccc(Oc3ccc(C(F)(F)F)c(F)c3)cc2C1` (stereo not drawn) [P-0146, (7-(3-fluoro-4-(trifluoro-methyl)phenoxy)-3,4-dihydroisoquinolin-2(1H)-yl)(piperidin-3-yl)methanone], the IC50 fell in the range of 0.001 to 10 µM.
For the compound `O=C(CCO)N1CCc2ccc(Oc3ccc(C(F)(F)F)cc3)cc2C1` [P-0067, 3-hydroxy-1-(7-(4-(trifluoromethyl)phen-oxy)-3,4-dihydroiso-quinolin-2(1H)-yl)-propan-1-one], the IC50 was 0.001 to 10 µM.
Turning to `C=CC(=O)Nc1nc(CC(=O)N2CCc3ccc(Oc4ccc(C(F)(F)F)c(F)c4)cc3C2)cs1` [P-0154, N-(4-(2-(7-(3-fluoro-4-(trifluoromethyl)phen-oxy)-3,4-dihydroisoquin-olin-2(1H)-yl)-2-oxoeth-yl)thiazol-2-yl)acrylamide], the IC50 is 0.001 to 10 µM.
On the same count and under the same terms, next, `O=C(Cc1ncc[nH]1)N1CCc2ccc(Oc3ccc(C(F)(F)F)c(F)c3)cc2C1` [P-0152, 1-(7-(3-fluoro-4-(trifluoromethyl)phen-oxy)-3,4-dihydroisoquin-olin-2(1H)-yl)-2-(1H-imidazol-2-yl)ethan-1-one]: 0.001 to 10 µM.
In the case of `CC(C)=Cc1c(Oc2ccc(C(F)(F)F)cc2)ccc2c1CN(C(=O)CCS(C)(=O)=O)CC2` [P-0221, 1-(8-(2-methylprop-1-en-1-yl)-7-(4-(trifluorometh-yl)phenoxy)-3,4-dihydro-isoquinolin-2(1H)-yl)-3-(methylsulfonyl)pro-pan-1-one], the IC50 was in the range of 0.001 to 10 µM.
Consider `O=C(NC1(C(=O)N2CCc3ccc(Oc4ccc(C(F)(F)F)cc4)cc3C2)CC1)C(F)(F)F` [P-0136, 2,2,2-trifluoro-N-(1-(7-(4-(trifluoromethyl)phen-oxy)-1,2,3,4-tetrahydro-isoquinoline-2-carbonyl)-cyclopropyl)acetamide], for which the IC50 fell in the range of 0.001 to 10 µM.
Turning to `CC(C)S(=O)(=O)N1CCc2ccc(Oc3ccc(C(F)(F)F)cc3)cc2C1` [P-0021, 2-(isopropylsulfonyl)-7-(4-(trifluoromethyl)-phenoxy)-1,2,3,4-tetra-hydroisoquinoline], the IC50 fell in the range of 0.001 to 10 µM.
`O=C(CC1CCOCC1)N1CCc2ccc(Oc3ccc(C(F)(F)F)cc3)cc2C1` [P-0087, 2-(tetrahydro-2H-pyran-4-yl)-1-(7-(4-(trifluoro-methyl)phenoxy)-3,4-dihydroisoquinolin-2(1H)-yl)ethan-1-one]: the IC50 lay within 0.001 to 10 µM.
Turning to `O=C(CCC(=O)C(F)(F)F)N1CCc2ccc(Oc3ccc(C(F)(F)F)cc3)cc2C1` [P-0076, 5,5,5-trifluoro-1-(7-(4-(trifluoromethyl)phen-oxy)-3,4-dihydroisoquin-olin-2(1H)-yl)pentane-1,4-dione], the IC50 is 0.001 to 10 µM.
On the same count and under the same terms, for `CN(C)C(N1CCc2ccc(Oc3ccc(C(F)(F)F)cc3)cc2C1)=[N+](C)C` [P-0156, N-((dimethylamino)(7-(4-(trifluoromethyl)phen-oxy)-3,4-dihydroisoquin-olin-2(1H)-yl)methylene)-N-methylmethanaminium] the value was 0.001 to 10 µM; for `O=C(CC1COC1)N1CCc2ccc(Oc3ccc(C(F)(F)F)cc3)cc2C1` [P-0069, 2-(oxetan-3-yl)-1-(7-(4-(trifluoromethyl)phen-oxy)-3,4-dihydroisoquin-olin-2(1H)-yl)ethan-1-one], 0.001 to 10 µM.
Regarding `O=C(Cc1cn[nH]c1)N1CCc2ccc(Oc3ccc(C(F)(F)F)cc3)cc2C1` [P-0099, 2-(1H-pyrazol-4-yl)-1-(7-(4-(trifluoromethyl)phen-oxy)-3,4-dihydroisoquin-olin-2(1H)-yl)ethan-1-one], the IC50 was in the range of 10 to 100 µM.
On the same count and under the same terms, for `CS(=O)(=O)NCCC(=O)N1CCc2ccc(Oc3ccc(C(F)(F)F)cc3)cc2C1` [P-0101, N-(3-oxo-3-(7-(4-(trifluoromethyl)phen-oxy)-3,4-dihydroisoquin-olin-2(1H)-yl)propyl)-methanesulfonamide] the value was 0.001 to 10 µM; for `Nc1nc(C(=O)N2CCc3c(cccc3Oc3ccc(C(F)(F)F)cc3)C2)cs1` [P-0240, (2-aminothiazol-4-yl)(5-(4-(trifluoromethyl)phen-oxy)-3,4-dihydroisoquin-olin-2(1H)-yl)methanone], 0.001 to 10 µM; for `C=CC(=O)N1CCC(C(=O)N2CCc3ccc(Oc4ccc(C(F)(F)F)c(F)c4)cc3C2)C1` (stereo not drawn) [P-0119, 1-(3-(7-(3-fluoro-4-(trifluoromethyl)phen-oxy)-1,2,3,4-tetrahydro-isoquinoline-2-carbon-yl)pyrrolidin-1-yl)prop-2-en-1-one], 0.001 to 10 µM.
`NC(=O)NCC(=O)N1CCc2c(cccc2-c2ccc(C(F)(F)F)cc2)C1` [P-0272, 1-(2-oxo-2-(5-(4-(trifluoromethyl)phen-yl)-3,4-dihydroisoquin-olin-2(1H)-yl)ethyl)urea]: the IC50 lay in the range of 0.001 to 10 µM.
Take `O=C(O)CCC(=O)N1CCc2ccc(Oc3ccc(C(F)(F)F)cc3)cc2C1` [P-0057, 4-oxo-4-(7-(4-(trifluoro-methyl)phenoxy)-3,4-dihydroisoquinolin-2(1H)-yl)butanoic acid]: the IC50 lay within 0.001 to 10 µM.
With `CS(=O)(=O)CCNC(=O)N1CCc2c(cccc2-c2ccc(C(F)(F)F)cc2)C1` [P-0276, N-(2-(methylsulfonyl)-ethyl)-5-(4-(trifluoro-methyl)phenyl)-3,4-dihydroisoquinoline-2(1H)-carboxamide], the IC50 lay within 0.001 to 10 µM.

The same assay, now with this note: MSTO-211H+12XGTIIC cell line, luciferase signal normalized to cell viability, 24 hours compound incubation; read-out: MSTO-211H GMean IC50 (uM) Cell Assay Reporter Cell Variant: TEAD.
Consider `C=CC(=O)N1CCC(C2c3cc(Oc4ccc(C(F)(F)F)cc4)ccc3CCN2C(=O)CCS(C)(=O)=O)C1` (single isomer, unassigned) [P-0218, 1-(3-(2-(3-(methylsulfonyl)propanoyl)-7-(4-(trifluoromethyl)phenoxy)-1,2,3,4-tetrahydroisoquinolin-1-yl)pyrrolidin-1-yl)prop-2-en-1-one], for which the IC50 was 0.001 to 10 µM.
